From patent publication US11866429B2, “Heteroaryl-biphenyl amines for the treatment of PD-L1 diseases” (CHEMOCENTRYX, INC., priority 2019, dated 2024)

molecular target: human PD-L1 (Homo sapiens (Human), UniProt Q9NZQ7); assay: Enzyme-Linked Immunosorbent Assay (ELISA), PD-1/PD-L1 binding; conditions: plates coated with human PD-L1; Human PD-1 and biotin added; absorbance at 450 nm
Method: 96 Well plates were coated with 1 μg/mL of human PD-L1 (obtained from R&D) in PBS overnight at 4° C. The wells were then blocked with 2% BSA in PBS (W/V) with 0.05% TWEEN-20 for 1 hour at 37° C. The plates were washed 3 times with PBS/0.05% TWEEN-20 and the compounds were serial diluted (1:5) in dilution medium and added to the ELISA plates. Human PD-1 and biotin 0.3 μg/mL (ACRO Biosystems) were added and incubated for 1 hour at 37° C. then washed 3 times with PBS/0.05% TWEEN-20. A second block was performed with 2% BSA in PBS (W/V)/0.05% TWEEN-20 for 10 min at 37° C. and the plates were washed 3 times with PBS/0.05% TWEEN-20. Streptavidin-HRP was added for 1 hour at 37° C. then the plates were washed 3 times with PBS/0.05% TWEEN-20. TMB substrate was added and reacted for 20 min at 37° C. A stop solution (2 N aqueous […]) was added. The absorbance was read at 450 nm using a micro-plate spectrophotometer.

Sequence of human PD-L1 (Q9NZQ7 19-239): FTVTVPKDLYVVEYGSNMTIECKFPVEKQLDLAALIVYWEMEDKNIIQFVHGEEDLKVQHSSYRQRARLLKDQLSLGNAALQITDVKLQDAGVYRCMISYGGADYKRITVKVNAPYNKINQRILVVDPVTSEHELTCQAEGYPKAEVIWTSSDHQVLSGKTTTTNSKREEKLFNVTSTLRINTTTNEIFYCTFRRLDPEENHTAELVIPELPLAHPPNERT

SMILES | IC50
COc1nc(-c2cccc(-c3cccc(Nc4nccc5nccnc45)c3Cl)c2Cl)cnc1CN[C@@H]1CCOC[C@@H]1O [Compound 1.001] | < 10 nM
COc1nc(-c2cccc(-c3cccc(Nc4nccc5nccnc45)c3Cl)c2Cl)cnc1CN1CC(C(=O)O)C1 [Compound 1.002] | < 10 nM
COc1nc(-c2cccc(-c3cccc(Nc4nccc5nccnc45)c3Cl)c2Cl)cnc1CN1CC(C)(C(=O)O)C1 [Compound 1.003] | < 10 nM
COc1nc(-c2cccc(-c3cccc(Nc4nccc5nccnc45)c3Cl)c2Cl)cnc1CNC[C@@H]1CCC(=O)N1 [Compound 1.004] | < 10 nM
COc1nc(-c2cccc(-c3cccc(Nc4nc(C)nc5cccnc45)c3C)c2Cl)cnc1CNCC1(O)CC1 [Compound 1.005] | < 10 nM
COc1nc(-c2cccc(-c3cccc(Nc4nc(C)nc5cccnc45)c3C)c2Cl)cnc1CNCCCO [Compound 1.006] | < 10 nM
COc1nc(-c2cccc(-c3cccc(Nc4nc(C)nc5cccnc45)c3Cl)c2F)ccc1CN[C@@H]1CCOC[C@@H]1O [Compound 1.009] | < 10 nM
COc1nc(-c2cccc(-c3cccc(Nc4nc(C)nc5cccnc45)c3C)c2C#N)ccc1CN[C@@H]1CCOC[C@@H]1O [Compound 1.010] | < 10 nM
COc1nc(-c2cccc(-c3cccc(Nc4nc(C)nc5cccnc45)c3Cl)c2F)ccc1CNC[C@@H]1CCC(=O)N1 [Compound 1.011] | < 10 nM
COc1nc(-c2cccc(-c3cccc(Nc4nc(C)nc5cccnc45)c3C)c2F)ccc1CN[C@@H]1CCOC[C@@H]1O [Compound 1.012] | < 10 nM
Cc1nc(Nc2cccc(-c3cccc(-c4ccc(CNC[C@@H]5CCC(=O)N5)c(C(F)(F)F)n4)c3Cl)c2C)c2ncccc2n1 [Compound 1.020] | < 10 nM

More lines, now with the values ahead:

IC50 | SMILES
< 10 nM | COc1nc(-c2cccc(-c3cccc(Nc4nc(C)nc5cccnc45)c3C)c2Cl)ccc1CN1CC(C)(O)C1 [Compound 1.007]
< 10 nM | COc1nc(-c2cccc(-c3cccc(Nc4nc(C)nc5cccnc45)c3C)c2Cl)ccc1CN1CC2(CNC(=O)N2)C1 [Compound 1.008]
< 10 nM | COc1nc(-c2cccc(-c3cccc(Nc4nc(C)nc5cccnc45)c3C)c2F)ccc1CNC[C@@H]1CCC(=O)N1 [Compound 1.013]
< 10 nM | CCOc1nc(-c2cccc(-c3cccc(Nc4nc(C)nc5cccnc45)c3C)c2Cl)ccc1CNC[C@@H]1CCC(=O)N1 [Compound 1.014]
< 10 nM | COc1nc(-c2cccc(-c3cccc(Nc4nc(C)nc5cccnc45)c3C)c2Cl)ccc1CNCC(C)(C)C(N)=O [Compound 1.015]
< 10 nM | COc1nc(-c2cccc(-c3cccc(Nc4nc(C)nc5cccnc45)c3C)c2Cl)ccc1CNC[C@H](O)CC(=O)O [Compound 1.016]
< 10 nM | COc1nc(-c2cccc(-c3cccc(Nc4nc(C)nc5cccnc45)c3C)c2Cl)ccc1CNC1CNC1 [Compound 1.017]
< 10 nM | COc1nc(-c2cccc(-c3cccc(Nc4nc(C)nc5cccnc45)c3C)c2Cl)ccc1CN[C@H]1CC[C@@H]1O [Compound 1.018]
< 10 nM | COc1nc(-c2cccc(-c3cccc(Nc4nc(C)nc5cccnc45)c3C)c2Cl)ccc1CNC1CCNCC1 [Compound 1.019]
< 10 nM | COc1nc(-c2cccc(-c3cccc(Nc4nc(C)nc5cccnc45)c3C)c2Cl)ccc1CN(C)CCO [Compound 1.021]
< 10 nM | COc1nc(-c2cccc(-c3cccc(Nc4nc(C)nc5cccnc45)c3C)c2Cl)ccc1CN1CCC[C@@H](C(=O)O)C1 [Compound 1.022]
< 10 nM | COc1nc(-c2cccc(-c3cccc(Nc4nc(C)nc5cccnc45)c3C)c2Cl)ccc1CN[C@H]1CCC(=O)NC1 [Compound 1.023]
< 10 nM | COc1nc(-c2cccc(-c3cccc(Nc4nc(C)nc5cccnc45)c3C)c2Cl)ccc1CN[C@H]1CNC(=O)C1 [Compound 1.024]
< 10 nM | COc1nc(-c2cccc(-c3cccc(Nc4nc(C)nc5cccnc45)c3C)c2Cl)ccc1CNCc1ncc[nH]1 [Compound 1.025]
< 10 nM | COc1nc(-c2cccc(-c3cccc(Nc4nc(C)nc5cccnc45)c3C)c2Cl)ccc1CNC[C@H]1CCC(=O)N1 [Compound 1.026]
